Results as given in article PMC6215257, “Erianin against Staphylococcus aureus Infection via Inhibiting Sortase A” (Toxins, 2018).

Tests used:
V193A-SrtA (Sortase A) = target: T1, V193A-SrtA (Sortase A) (Staphylococcus aureus, UniProt Q2FV99, V193A); experiment: fluorescence quenching binding constant (KA); FRET inhibition reduced vs WT
T1 construct: residues 60–206 (pG-srtAΔN59, pGEX-6P-1)

Sortase A (srtA) = target: T2, Sortase A (srtA) (Staphylococcus aureus, UniProt Q2FV99); experiment: FRET peptide cleavage assay with purified SrtA; binding also by fluorescence quenching (KA […] L/mol); format: biochemical
T2 construct: residues 60–206 (pG-srtAΔN59, pGEX-6P-1)

R197A-SrtA (Sortase A) = target: T3, R197A-SrtA (Sortase A) (Staphylococcus aureus, UniProt Q2FV99, R197A); experiment: fluorescence quenching binding constant (KA); FRET inhibition reduced vs WT
T3 construct: residues 60–206 (pG-srtAΔN59, pGEX-6P-1)

For `COc1ccc(CCc2cc(OC)c(OC)c(OC)c2)cc1O` [erianin], the Kd (V193A-SrtA (Sortase A)) was 2280 nM, the IC50 (Sortase A (srtA)) was 65.7 ± 7.2 µM and the Kd (R197A-SrtA (Sortase A)) was 2530 nM.
